Earlier results in patent publication US20120238596A1, “FORMULATIONS COMPRISING PALONOSETRON” (DR. REDDY'S LABORATORIES, INC., priority 2008, published 2012).

Target: T1, serotonin subtype 3 (5-HT3) receptor (Homo sapiens, UniProt P46098)
T1 sequence (P46098 24-478): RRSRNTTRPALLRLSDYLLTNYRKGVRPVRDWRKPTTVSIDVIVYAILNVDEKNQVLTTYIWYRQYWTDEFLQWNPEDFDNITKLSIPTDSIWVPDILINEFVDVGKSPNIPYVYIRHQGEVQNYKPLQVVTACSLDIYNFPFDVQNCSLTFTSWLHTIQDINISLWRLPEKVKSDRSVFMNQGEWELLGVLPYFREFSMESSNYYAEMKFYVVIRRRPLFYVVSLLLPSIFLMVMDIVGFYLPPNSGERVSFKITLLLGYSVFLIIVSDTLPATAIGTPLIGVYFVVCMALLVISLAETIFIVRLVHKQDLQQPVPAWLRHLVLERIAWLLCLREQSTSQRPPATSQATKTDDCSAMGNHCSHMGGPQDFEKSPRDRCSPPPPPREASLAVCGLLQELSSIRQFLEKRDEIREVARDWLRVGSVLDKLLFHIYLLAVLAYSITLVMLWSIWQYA

- binding affinity for 5-HT3 receptor: strong binding affinity
SMILES: Cl.O=C1c2cccc3c2[C@H](CCC3)CN1[C@@H]1CN2CCC1CC2 [Palonosetron hydrochloride, (3a5)-2-[(S)-1-Azabicyclo [2.2.2]oct-3-yl]-2,3,3a,4,5,6-hexahydro-1-oxo-1H-benz [de]isoquinoline hydrochloride]
